Experiments:
[1] = target: T1, 5-hydroxytryptamine receptor 6 (Homo sapiens, UniProt P50406); experiment: Binding affinity against human 5-hydroxytryptamine 6 receptor stably transfected to HEK 293 human embryonic kidney cells using [3H]-lysergic acid diethylamide as radioligand; assay type: cell-based, HEK293
[2] = target: 5-hydroxytryptamine receptor 1B (Homo sapiens, UniProt P28222); experiment: Compound was evaluated for its binding affinity for human 5-hydroxytryptamine 1B receptor
[3] = target: T2, 5-hydroxytryptamine receptor 2C (Rattus norvegicus, UniProt P08909); experiment: Compound was evaluated for its binding affinity for rat 5-hydroxytryptamine 2C receptor
T2 sequence (P08909 whole entry): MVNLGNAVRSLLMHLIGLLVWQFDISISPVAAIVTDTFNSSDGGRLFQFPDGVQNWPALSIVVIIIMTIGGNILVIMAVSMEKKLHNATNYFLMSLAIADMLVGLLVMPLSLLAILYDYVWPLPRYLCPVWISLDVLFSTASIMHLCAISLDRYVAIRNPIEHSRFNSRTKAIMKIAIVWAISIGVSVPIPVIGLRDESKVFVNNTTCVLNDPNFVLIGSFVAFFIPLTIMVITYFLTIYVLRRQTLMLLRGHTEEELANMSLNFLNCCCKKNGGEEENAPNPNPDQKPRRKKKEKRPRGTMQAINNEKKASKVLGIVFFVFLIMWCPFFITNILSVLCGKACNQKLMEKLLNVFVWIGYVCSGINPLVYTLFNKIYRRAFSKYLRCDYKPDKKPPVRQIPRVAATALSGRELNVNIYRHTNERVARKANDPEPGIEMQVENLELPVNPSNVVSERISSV

[4] = Compound was evaluated for its binding affinity for human 5-hydroxytryptamine 3 receptor
[5] = target: 5-hydroxytryptamine receptor 2A (Rattus norvegicus, UniProt P14842); experiment: Compound was evaluated for its binding affinity for rat 5-hydroxytryptamine 2A receptor
[6] = target: T1, 5-hydroxytryptamine receptor 6
[7] = target: 5-hydroxytryptamine receptor 7 (Homo sapiens, UniProt P34969); experiment: Compound was evaluated for its binding affinity for human 5-hydroxytryptamine 7 receptor
[8] = target: 5-hydroxytryptamine receptor 1E (Homo sapiens, UniProt P28566); experiment: Compound was evaluated for its binding affinity for human 5-hydroxytryptamine 1E receptor
Chain of 5-hydroxytryptamine receptor 1E (P28566 whole entry): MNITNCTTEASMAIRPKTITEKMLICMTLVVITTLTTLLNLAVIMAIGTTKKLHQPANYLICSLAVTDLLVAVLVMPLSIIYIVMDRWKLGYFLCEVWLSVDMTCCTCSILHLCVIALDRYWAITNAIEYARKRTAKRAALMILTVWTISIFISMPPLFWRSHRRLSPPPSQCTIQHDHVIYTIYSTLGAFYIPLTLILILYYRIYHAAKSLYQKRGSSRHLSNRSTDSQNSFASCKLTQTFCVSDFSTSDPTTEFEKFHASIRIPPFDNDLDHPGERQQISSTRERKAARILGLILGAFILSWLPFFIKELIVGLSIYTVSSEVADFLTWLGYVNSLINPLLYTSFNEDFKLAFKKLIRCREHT

T1 sequence (P50406 whole entry): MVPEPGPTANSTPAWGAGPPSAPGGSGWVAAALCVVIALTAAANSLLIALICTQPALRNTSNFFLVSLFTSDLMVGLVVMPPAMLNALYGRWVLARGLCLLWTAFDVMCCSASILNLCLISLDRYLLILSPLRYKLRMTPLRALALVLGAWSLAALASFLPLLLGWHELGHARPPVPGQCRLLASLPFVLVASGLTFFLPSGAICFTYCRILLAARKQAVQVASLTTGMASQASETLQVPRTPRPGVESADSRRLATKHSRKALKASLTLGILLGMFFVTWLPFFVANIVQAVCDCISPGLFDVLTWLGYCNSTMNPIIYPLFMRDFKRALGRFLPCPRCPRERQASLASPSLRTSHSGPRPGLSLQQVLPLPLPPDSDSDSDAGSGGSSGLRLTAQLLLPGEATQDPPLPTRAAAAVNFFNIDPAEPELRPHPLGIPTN
Chain of 5-hydroxytryptamine receptor 1B (P28222 whole entry): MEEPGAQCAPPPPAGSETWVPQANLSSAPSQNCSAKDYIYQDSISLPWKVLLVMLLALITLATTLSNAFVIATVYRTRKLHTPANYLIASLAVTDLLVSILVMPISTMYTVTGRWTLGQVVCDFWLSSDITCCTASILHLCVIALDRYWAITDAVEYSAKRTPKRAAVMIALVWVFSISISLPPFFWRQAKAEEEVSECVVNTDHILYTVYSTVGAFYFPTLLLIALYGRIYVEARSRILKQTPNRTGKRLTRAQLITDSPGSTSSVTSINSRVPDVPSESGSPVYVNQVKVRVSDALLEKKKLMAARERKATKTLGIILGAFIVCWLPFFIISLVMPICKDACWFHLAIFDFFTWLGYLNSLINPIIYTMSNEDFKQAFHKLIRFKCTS
Chain of 5-hydroxytryptamine receptor 7 (P34969 whole entry): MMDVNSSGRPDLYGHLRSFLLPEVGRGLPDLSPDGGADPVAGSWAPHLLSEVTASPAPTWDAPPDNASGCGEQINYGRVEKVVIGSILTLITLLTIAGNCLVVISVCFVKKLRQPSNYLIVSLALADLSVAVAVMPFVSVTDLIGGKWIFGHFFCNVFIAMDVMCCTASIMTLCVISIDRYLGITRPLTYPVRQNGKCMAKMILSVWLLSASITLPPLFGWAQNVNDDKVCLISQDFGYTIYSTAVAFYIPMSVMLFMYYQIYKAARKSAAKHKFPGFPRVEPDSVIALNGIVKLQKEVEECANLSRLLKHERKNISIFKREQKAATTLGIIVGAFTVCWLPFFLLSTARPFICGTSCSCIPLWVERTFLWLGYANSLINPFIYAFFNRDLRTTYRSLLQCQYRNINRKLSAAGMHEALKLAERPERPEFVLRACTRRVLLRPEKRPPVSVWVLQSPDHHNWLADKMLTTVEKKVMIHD
Chain of 5-hydroxytryptamine receptor 2A (P14842 whole entry): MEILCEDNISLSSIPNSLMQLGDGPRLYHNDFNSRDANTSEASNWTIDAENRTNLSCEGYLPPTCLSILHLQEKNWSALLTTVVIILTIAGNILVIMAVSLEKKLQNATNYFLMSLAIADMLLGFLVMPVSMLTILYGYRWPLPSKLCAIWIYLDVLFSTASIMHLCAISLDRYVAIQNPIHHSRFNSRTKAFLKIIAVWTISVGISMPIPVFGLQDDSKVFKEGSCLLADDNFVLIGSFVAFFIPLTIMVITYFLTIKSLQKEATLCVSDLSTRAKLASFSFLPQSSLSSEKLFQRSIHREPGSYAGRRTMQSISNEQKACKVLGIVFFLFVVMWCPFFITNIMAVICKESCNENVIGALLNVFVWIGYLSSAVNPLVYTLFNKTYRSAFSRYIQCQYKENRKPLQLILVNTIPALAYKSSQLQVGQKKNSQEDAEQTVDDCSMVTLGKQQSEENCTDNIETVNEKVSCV

Compound | Ki [1] [nM] | further results
COc1ccc2c(c1)c(CCN(C)C)cn2S(=O)(=O)c1ccc(Cl)cc1 | 3.1 | –
COc1ccc(S(=O)(=O)n2cc(CCN(C)C)c3cc(OC)ccc32)cc1 | 8 | –
COc1ccc(S(=O)(=O)n2cc(CCN(C)C)c3cccc(OC)c32)cc1 | 93 | –
COc1ccc2c(c1)c(CCN(C)C)cn2S(=O)(=O)c1ccc2ccccc2c1 | 1.6 | –
COc1cccc2c(CCN(C)C)cn(S(=O)(=O)c3ccc4ccccc4c3)c12 | 5 | –
COc1cccc2c(CCN(C)C)cn(S(=O)(=O)c3ccc(Cl)cc3)c12 | 45 | –
COc1ccc(OC)c(S(=O)(=O)n2cc(CCN(C)C)c3ccc(OC)cc32)c1 | 9.5 | –
COc1ccc2c(c1)c(CCN(C)C)cn2S(=O)(=O)c1ccccc1 | 2.3 | Ki [2]: 9210 nM; Ki [3]: 23 nM; Ki [4]: 2390 nM; Ki [5]: 130 nM; pA2 [6]: 8.88; Ki [7]: 600 nM; Ki [8]: 4220 nM
COc1ccc(OC)c(S(=O)(=O)n2cc(CCN(C)C)c3cc(OC)ccc32)c1 | 1.3 | –
COc1ccc(OC)c(S(=O)(=O)n2cc(CCN(C)C)c3cccc(OC)c32)c1 | 183 | –
COc1ccc(OC)c(S(=O)(=O)n2cc(CCN(C)C)c3c(OC)cccc32)c1 | 7.4 | –
COc1ccc2c(c1)c(CCN(C)C)cn2S(=O)(=O)c1cccc2ccccc12 | 0.9 | –
